Measured values reported in patent US20240182513A1, “SEPARATION OF METAL IONS FROM A SAMPLE USING GLYCOLIPIDS” (ARIZONA BOARD OF REGENTS ON BEHALF OF THE UNIVERSITY OF …, priority 2021, published 2024).

Test: Example 2.1 rhamnolipid precipitation, filtration, centrifugation: lead
Conditions: for Treatment 2: Rhamnolipid and Filtration Cf / Treatment 3: Rhamnolipid and Centrifugation Cc / Treatment 1: Rhamnolipid Only Cr: lead concentration after treatment; for Treatment 1: Rhamnolipid Only (Rr) efficiency of removal / Treatment 2: Rhamnolipid and Filtration (Rf) efficiency of removal / Treatment 3: Rhamnolipid and Centrifugation (Rc) efficiency of removal: lead
Protocol: Structural variants of synthetic glycolipids were used to show the effect of the number and length of the hydrophobic tail(s) on rhamnolipid as a chemical precipitant. […] Solutions (10 mM) were made using nanopure water (≥18 MΩ-cm) then adjusted to a pH of 6.9±0.05 with HNO3 and NaOH. These solutions were made in advance and stored in the cold room for up to one month. They were brought to room temperature before each experiment.
Three metals were tested for binding with rhamnolipid. Lead as […] (Fisher Scientific, Waltham, MA, 99% purity), was chosen to represent a metal with high rhamnolipid-metal conditional stability constant; lanthanum as La(NO3)3 6(H2O) (Sigma-Aldrich, St. Louis, MO, 99.99% purity) was chosen as a representative REE; and magnesium as Mg(NO3)2 6(H2O) (Sigma-Aldrich, St. Louis, MO, 99% purity) was chosen to represent a metal with a low rhamnolipid-metal conditional stability constant (Hogan et al., 2017). Metal solutions (5 mM) were made using nanopure water (≥18 MΩ-cm) in 20 ml glass scintillation vials. All solutions were used within 15 min to ensure minimal adsorption to the glass vial.
Three glycolipid-based treatments were evaluated to remove metal from solution: (1) the addition of glycolipid with no further treatment (gravitational precipitation), (2) the addition of a glycolipid followed by filtration or (3) the addition of a glycolipid followed by centrifugation. Each metal (Pb, La, and Mg) was evaluated separately with each of the glycolipid structures. For each experiment, a metal solution was mixed with a glycolipid solution in a 1.7 ml reaction tube at varying molar ratios of glycolipid to metal: 0:1 (glycolipid-free control), 2:1, 5:1, and 10:1. The reactions were mixed in the order of nanopure water (≥18 MΩ-cm), glycolipid solution (10 mM), then metal solution (5 mM). The metal and glycolipid solutions were continuously stirred as they were aliquoted into the reaction tubes. The experiment was performed in triplicate.
The reaction tubes were mixed overnight (16 to 24 h) and then three samples were collected from each tube to measure the effect of each of the three treatments: a glycolipid only treatment sample, a filtration treatment sample, and a centrifugation treatment sample. Briefly, for the glycolipid only treatment samples all tubes were vortexed for approximately 5 sec immediately before removing 0.1 ml into a dilution tube of 2% trace metal grade nitric acid (12 to 14 ml) to minimize the settling of particles. For the filtration samples each reaction tube was vortexed for 5 sec and then a 0.6 ml aliquot was collected with a 1 ml syringe. A GHP acrodisc disk filter (hydrophilic polypropylene membrane, 0.45 μm pore size, 25 mm disc diameter) from Pall Life Sciences (Port Washington, New York) was then placed onto the end of the syringe and the solution was pushed through the filter. The void space in the disk filter holds approximately 0.5 ml, therefore around 0.1 ml of filtrate was collected into a dilution tube. For the centrifugation sample, the remaining solution was centrifuged at 10,000 RCF for 15 min. Approximately 0.1 ml of the supernatant was aliquoted into a dilution tube. Following collection, all samples were taken for metal analysis using ICP-MS.

CCCCCCCCCC(CC(=O)O)OC(=O)CC(CCCCCCCCC)OC1O[C@@H](C)[C@H](O)[C@@H](O)[C@H]1O (stereo partly drawn) [Rha C12C12, rhamnosyl-β-hydroxydodecanoyl-62-hydroxydodecanoate]
Treatment 2: Rhamnolipid and Filtration Cf (molar ratio 2 to 1): 0.069 ± 0.018 mmol/L | Treatment 3: Rhamnolipid and Centrifugation Cc (molar ratio 2 to 1): 0.146 ± 0.008 mmol/L | Treatment 1: Rhamnolipid Only Cr (molar ratio 5 to 1): 0.204 ± 0.004 mmol/L | Treatment 2: Rhamnolipid and Filtration Cf (molar ratio 5 to 1): 0.049 ± 0.021 mmol/L | Treatment 3: Rhamnolipid and Centrifugation Cc (molar ratio 5 to 1): 0.047 ± 0.003 mmol/L | Treatment 1: Rhamnolipid Only Cr (molar ratio 10 to 1): 0.249 ± 0.10 mmol/L | Treatment 2: Rhamnolipid and Filtration Cf (molar ratio 10 to 1): 0.059 ± 0.028 mmol/L | Treatment 3: Rhamnolipid and Centrifugation Cc (molar ratio 10 to 1): 0.129 ± 0.002 mmol/L | Treatment 1: Rhamnolipid Only Cr (molar ratio rhamnolipid:lead 2 to 1): 0.211 ± 0.010 mmol/L | Treatment 1: Rhamnolipid Only (Rr) efficiency of removal (molar ratio 2 to 1): (22.4%) | Treatment 2: Rhamnolipid and Filtration (Rf) efficiency of removal (molar ratio 2 to 1): (74.8%) | Treatment 3: Rhamnolipid and Centrifugation (Rc) efficiency of removal (molar ratio 2 to 1): (46.4%) | Treatment 1: Rhamnolipid Only (Rr) efficiency of removal (molar ratio 5 to 1): (25.0%) | Treatment 2: Rhamnolipid and Filtration (Rf) efficiency of removal (molar ratio 5 to 1): (81.8%) | Treatment 3: Rhamnolipid and Centrifugation (Rc) efficiency of removal (molar ratio 5 to 1): (82.8%) | Treatment 1: Rhamnolipid Only (Rr) efficiency of removal (molar ratio 10 to 1): (8.6%) | Treatment 2: Rhamnolipid and Filtration (Rf) efficiency of removal (molar ratio 10 to 1): (78.3%) | Treatment 3: Rhamnolipid and Centrifugation (Rc) efficiency of removal (molar ratio 10 to 1): (52.8%)
